Assay results published in ChEMBL document CHEMBL1255497, “Azole resistance profile of amino acid changes in Aspergillus fumigatus CYP51A based on protein homology modeling” (2010).
Converted amounts (≈) assume the structure as drawn.

Tests used:
Aspergillus fumigatus [1] = experiment: Antimicrobial activity against itraconazole-resistant Aspergillus fumigatus clinical isolate expressing cyp51A L98H, S297T, F495 mutant gene by CLSI method; type: functional
Aspergillus fumigatus [2] = experiment: Antimicrobial activity against itraconazole-resistant Aspergillus fumigatus clinical isolate expressing cyp51A M220R mutant gene by CLSI method; type: functional
Aspergillus fumigatus [3] = experiment: Antimicrobial activity against itraconazole-resistant Aspergillus fumigatus clinical isolate expressing cyp51A G54W mutant gene by CLSI method; type: functional
Aspergillus fumigatus [4] = experiment: Antimicrobial activity against itraconazole-resistant Aspergillus fumigatus clinical isolate expressing cyp51A L98H mutant gene by CLSI method; type: functional
Aspergillus fumigatus [5] = experiment: Antimicrobial activity against itraconazole-susceptible Aspergillus fumigatus clinical isolate expressing cyp51A F46Y, M172V, L358L, E427K, C454C mutant gene by CLSI method; type: functional
Aspergillus fumigatus [6] = experiment: Antimicrobial activity against itraconazole-resistant Aspergillus fumigatus environmental isolate expressing cyp51A L98H, Q141H mutant gene by CLSI method
Aspergillus fumigatus [7] = experiment: Antimicrobial activity against itraconazole-resistant Aspergillus fumigatus clinical isolate expressing cyp51A M220I mutant gene by CLSI method; type: functional
Aspergillus fumigatus [8] = experiment: Antimicrobial activity against itraconazole-resistant Aspergillus fumigatus clinical isolate expressing cyp51A L98H, Q88H mutant gene and by CLSI method; type: functional
Aspergillus fumigatus [9] = experiment: Antimicrobial activity against itraconazole-susceptible Aspergillus fumigatus environmental isolate expressing cyp51A F46Y, G89G, M172V, L358L, C454C mutant gene by CLSI method
Aspergillus fumigatus [10] = experiment: Antimicrobial activity against itraconazole-resistant Aspergillus fumigatus environmental isolate expressing cyp51A L98H, S52T mutant gene by CLSI method
Aspergillus fumigatus [11] = experiment: Antimicrobial activity against itraconazole-resistant Aspergillus fumigatus clinical isolate expressing cyp51A L98H, N125I mutant gene by CLSI method; type: functional
Aspergillus fumigatus [12] = experiment: Antimicrobial activity against itraconazole-resistant Aspergillus fumigatus clinical isolate expressing cyp51A L98H, L339L mutant gene by CLSI method; type: functional
Aspergillus fumigatus [13] = experiment: Antimicrobial activity against itraconazole-susceptible Aspergillus fumigatus clinical isolate expressing cyp51A F46Y, G89G, M172V, N248T, D255E, L358L, E427K, C454C mutant gene by CLSI method; type: functional
Aspergillus fumigatus [14] = experiment: Antimicrobial activity against itraconazole-susceptible Aspergillus fumigatus clinical isolate expressing cyp51A F46Y, G89G, M172V, N248T, D255E, E427K mutant gene by CLSI method; type: functional
Aspergillus fumigatus [15] = experiment: Antimicrobial activity against itraconazole-resistant Aspergillus fumigatus clinical isolate expressing cyp51A M220K mutant gene by CLSI method; type: functional
Aspergillus fumigatus [16] = experiment: Antimicrobial activity against itraconazole-susceptible Aspergillus fumigatus clinical isolate expressing cyp51A F46Y, G89G mutant gene by CLSI method; type: functional
Aspergillus fumigatus [17] = experiment: Antimicrobial activity against itraconazole-susceptible Aspergillus fumigatus clinical isolate expressing cyp51A F46Y, G89G, L358L, E427K, C454C mutant gene by CLSI method; type: functional
Aspergillus fumigatus [18] = experiment: Antimicrobial activity against itraconazole-resistant Aspergillus fumigatus clinical isolate expressing cyp51A G138C mutant gene by CLSI method; type: functional
Aspergillus fumigatus [19] = experiment: Antimicrobial activity against itraconazole-susceptible Aspergillus fumigatus clinical isolate expressing wild type cyp51A gene by CLSI method; type: functional
Aspergillus fumigatus [20] = experiment: Antimicrobial activity against itraconazole-susceptible Aspergillus fumigatus clinical isolate expressing cyp51A S400I mutant gene by CLSI method; type: functional
Aspergillus fumigatus [21] = experiment: Antimicrobial activity against itraconazole-resistant Aspergillus fumigatus clinical isolate expressing cyp51A M220V mutant gene by CLSI method; type: functional
Aspergillus fumigatus [22] = experiment: Antimicrobial activity against itraconazole-resistant Aspergillus fumigatus clinical isolate expressing cyp51A F46Y, G89G, M172V, N248T, D255E, L358L, E427K and C454C mutant gene by CLSI method; type: functional
Aspergillus fumigatus [23] = experiment: Antimicrobial activity against itraconazole-resistant Aspergillus fumigatus clinical isolate expressing cyp51A G54E mutant gene by CLSI method; type: functional
Aspergillus fumigatus [24] = experiment: Antimicrobial activity against itraconazole-resistant Aspergillus fumigatus clinical isolate expressing cyp51A L98H, F495I mutant gene by CLSI method; type: functional
Aspergillus fumigatus [25] = experiment: Antimicrobial activity against itraconazole-resistant Aspergillus fumigatus clinical isolate expressing cyp51A L98H, A284A mutant gene by CLSI method; type: functional
Aspergillus fumigatus [26] = experiment: Antimicrobial activity against itraconazole-resistant Aspergillus fumigatus clinical isolate expressing wild type cyp51A gene by CLSI method; type: functional
Aspergillus fumigatus [27] = experiment: Antimicrobial activity against itraconazole-susceptible Aspergillus fumigatus clinical isolate expressing cyp51A F46Y, G89G, E427K, C454C mutant gene by CLSI method; type: functional
Aspergillus fumigatus [28] = experiment: Antimicrobial activity against itraconazole-susceptible Aspergillus fumigatus clinical isolate expressing cyp51A F46Y, G89G, M172V, L358L, E427K, C454C mutant gene by CLSI method; type: functional
Aspergillus fumigatus [29] = experiment: Antimicrobial activity against itraconazole-susceptible Aspergillus fumigatus clinical isolate expressing cyp51A L252L mutant gene by CLSI method; type: functional
Aspergillus fumigatus [30] = experiment: Antimicrobial activity against itraconazole-susceptible Aspergillus fumigatus clinical isolate expressing cyp51A E130D mutant gene by CLSI method; type: functional

SMILES	MIC (Aspergillus fumigatus [1]) [µg/mL]	MIC (Aspergillus fumigatus [2]) [µg/mL]	MIC (Aspergillus fumigatus [3]) [µg/mL]	MIC (Aspergillus fumigatus [4]) [µg/mL]	MIC (Aspergillus fumigatus [5]) [µg/mL]	MIC (Aspergillus fumigatus [6]) [µg/mL]	MIC (Aspergillus fumigatus [7]) [µg/mL]	MIC (Aspergillus fumigatus [8]) [µg/mL]	MIC (Aspergillus fumigatus [9]) [µg/mL]	MIC (Aspergillus fumigatus [10]) [µg/mL]	MIC (Aspergillus fumigatus [11]) [µg/mL]	MIC (Aspergillus fumigatus [12]) [µg/mL]	MIC (Aspergillus fumigatus [13]) [µg/mL]	MIC (Aspergillus fumigatus [14]) [µg/mL]	MIC (Aspergillus fumigatus [15]) [µg/mL]	MIC (Aspergillus fumigatus [16]) [µg/mL]	MIC (Aspergillus fumigatus [17]) [µg/mL]	MIC (Aspergillus fumigatus [18]) [µg/mL]	MIC (Aspergillus fumigatus [19]) [µg/mL]	MIC (Aspergillus fumigatus [20]) [µg/mL]	also measured
CC[C@@H]([C@H](C)O)n1ncn(-c2ccc(N3CCN(c4ccc(OC[C@@H]5CO[C@@](Cn6cncn6)(c6ccc(F)cc6F)C5)cc4)CC3)cc2)c1=O [POSACONAZOLE]	0.063 (≈ 0.0899 µM)	2 (≈ 2.85 µM)	> 16	0.25 (≈ 0.357 µM)	0.063 (≈ 0.0899 µM)	0.5 (≈ 0.713 µM)	0.5 (≈ 0.713 µM)	0.25 (≈ 0.357 µM)	0.125 (≈ 0.178 µM)	0.5 (≈ 0.713 µM)	0.5 (≈ 0.713 µM)	1 (≈ 1.43 µM)	0.063 (≈ 0.0899 µM)	0.063 (≈ 0.0899 µM)	> 16	0.016 (≈ 0.0228 µM)	0.063 (≈ 0.0899 µM)	> 16	0.031 (≈ 0.0442 µM)	0.25 (≈ 0.357 µM)	MIC (Aspergillus fumigatus [21]): 0.5 µg/mL (≈ 0.713 µM); MIC (Aspergillus fumigatus [22]): 1 µg/mL (≈ 1.43 µM); MIC (Aspergillus fumigatus [23]): 0.25 µg/mL (≈ 0.357 µM); MIC (Aspergillus fumigatus [24]): 0.125 µg/mL (≈ 0.178 µM); MIC (Aspergillus fumigatus [25]): 0.5 µg/mL (≈ 0.713 µM); MIC (Aspergillus fumigatus [26]): 0.125 µg/mL (≈ 0.178 µM); MIC (Aspergillus fumigatus [27]): 0.063 µg/mL (≈ 0.0899 µM); MIC (Aspergillus fumigatus [28]): 0.063 µg/mL (≈ 0.0899 µM); MIC (Aspergillus fumigatus [29]): 0.5 µg/mL (≈ 0.713 µM); MIC (Aspergillus fumigatus [30]): 0.125 µg/mL (≈ 0.178 µM)
C[C@@H](c1ncncc1F)[C@](O)(Cn1cncn1)c1ccc(F)cc1F [VORICONAZOLE]	1 (≈ 2.86 µM)	2 (≈ 5.73 µM)	0.25 (≈ 0.716 µM)	2 (≈ 5.73 µM)	1 (≈ 2.86 µM)	4 (≈ 11.5 µM)	1 (≈ 2.86 µM)	8 (≈ 22.9 µM)	1 (≈ 2.86 µM)	4 (≈ 11.5 µM)	8 (≈ 22.9 µM)	8 (≈ 22.9 µM)	0.25 (≈ 0.716 µM)	1 (≈ 2.86 µM)	2 (≈ 5.73 µM)	0.5 (≈ 1.43 µM)	2 (≈ 5.73 µM)	8 (≈ 22.9 µM)	0.5 (≈ 1.43 µM)	2 (≈ 5.73 µM)	MIC (Aspergillus fumigatus [21]): 1 µg/mL (≈ 2.86 µM); MIC (Aspergillus fumigatus [22]): > 16 µg/mL; MIC (Aspergillus fumigatus [23]): 0.25 µg/mL (≈ 0.716 µM); MIC (Aspergillus fumigatus [24]): 2 µg/mL (≈ 5.73 µM); MIC (Aspergillus fumigatus [25]): 4 µg/mL (≈ 11.5 µM); MIC (Aspergillus fumigatus [26]): 0.25 µg/mL (≈ 0.716 µM); MIC (Aspergillus fumigatus [27]): 0.25 µg/mL (≈ 0.716 µM); MIC (Aspergillus fumigatus [28]): 0.5 µg/mL (≈ 1.43 µM); MIC (Aspergillus fumigatus [29]): 1 µg/mL (≈ 2.86 µM); MIC (Aspergillus fumigatus [30]): 0.5 µg/mL (≈ 1.43 µM)
CCC(C)n1ncn(-c2ccc(N3CCN(c4ccc(OCC5COC(Cn6cncn6)(c6ccc(Cl)cc6Cl)O5)cc4)CC3)cc2)c1=O (stereo not given) [ITRACONAZOLE]	16 (≈ 22.7 µM)	> 16	> 16	4 (≈ 5.67 µM)	0.125 (≈ 0.177 µM)	> 16	> 16	> 16	0.25 (≈ 0.354 µM)	> 16	> 16	> 16	0.25 (≈ 0.354 µM)	0.25 (≈ 0.354 µM)	> 16	0.125 (≈ 0.177 µM)	0.25 (≈ 0.354 µM)	> 16	0.125 (≈ 0.177 µM)	1 (≈ 1.42 µM)	MIC (Aspergillus fumigatus [21]): > 16 µg/mL; MIC (Aspergillus fumigatus [22]): > 16 µg/mL; MIC (Aspergillus fumigatus [23]): > 16 µg/mL; MIC (Aspergillus fumigatus [24]): > 16 µg/mL; MIC (Aspergillus fumigatus [25]): > 16 µg/mL; MIC (Aspergillus fumigatus [26]): 8 µg/mL (≈ 11.3 µM); MIC (Aspergillus fumigatus [27]): 0.25 µg/mL (≈ 0.354 µM); MIC (Aspergillus fumigatus [28]): 0.125 µg/mL (≈ 0.177 µM); MIC (Aspergillus fumigatus [29]): 0.25 µg/mL (≈ 0.354 µM); MIC (Aspergillus fumigatus [30]): 0.5 µg/mL (≈ 0.709 µM)
